Measurements published in US12473296B2, “Perk inhibiting compounds” (HiberCell, Inc., priority 2019, dated 2025).

Assays:
[1] = molecular target: EIF2AK3 (PERK) catalytic domain (amino acids 536-1116) (Homo sapiens (Human), UniProt Q9NZJ5); test: PERK in vitro activity assay (isolated), TR-FRET kinase assay; conditions: isolated PERK enzyme, 1.5 μM ATP, GFP-eIF2a substrate; read-out: Biochemical IC50
Description: PERK In Vitro Activity Assay (Isolated):
In vitro Inhibition of PERK Enzyme Activity (isolated) Recombinant human EIF2AK2 (PKR) catalytic domain (amino acids 252-551), EIF2AK3 (PERK) catalytic domain (amino acids 536-1116), GFP-eIF2a substrate, and Terbium-labelled phospho-eIF2a antibody is obtained (Invitrogen, Carlsbad, CA).
Express and purify HIS-SUMO-GCN2 catalytic domain (amino acids 584-1019) from E. coli. Perform TR-FRET kinase assays in the absence or presence of inhibitors in a reaction buffer consisting of 50 mM HEPES, pH 7.5, 10 mM MgCb, 1.0 mM EGTA, and 0.01% Brij-35, and 100-200 nM GFP-eIF2a substrate. […] Add test compound, initiate the reaction by addition of enzyme, and incubate at room temperature for 45 minutes. Stop the reaction by addition of EDTA to a final concentration of 10 mM, add Terbium-labelled phospho-eIF2a antibody at a final concentration of 2 nM, and incubate for 90 minutes. Monitor the resulting fluorescence in an EnVison® Multilabel reader (PerkinElmer, Waltham, MA). Determine TR-FRET ratios and the resulting IC50 values using a 4-parameter nonlinear logistic equation as shown: Y=(A+((B−A)/(1+((C/x)[…])))) where, Y=% specific inhibition, A=Bottom of the curve, B=Top of the curve, C=absolute IC50 (concentration causing 50% inhibition), and D=hill slope.

PERK = PERK (Homo sapiens (Human), UniProt Q9NZJ5); test: PERK cellular assay (TR-FRET, HEK293-EGFP-eIF2α cells, tunicamycin-induced ER stress); assay type: cell-based; conditions: tunicamycin 2 hours, read-out: Cellular IC50 (μM) (EIF2a)
Chain of PERK (Q9NZJ5 30-1116): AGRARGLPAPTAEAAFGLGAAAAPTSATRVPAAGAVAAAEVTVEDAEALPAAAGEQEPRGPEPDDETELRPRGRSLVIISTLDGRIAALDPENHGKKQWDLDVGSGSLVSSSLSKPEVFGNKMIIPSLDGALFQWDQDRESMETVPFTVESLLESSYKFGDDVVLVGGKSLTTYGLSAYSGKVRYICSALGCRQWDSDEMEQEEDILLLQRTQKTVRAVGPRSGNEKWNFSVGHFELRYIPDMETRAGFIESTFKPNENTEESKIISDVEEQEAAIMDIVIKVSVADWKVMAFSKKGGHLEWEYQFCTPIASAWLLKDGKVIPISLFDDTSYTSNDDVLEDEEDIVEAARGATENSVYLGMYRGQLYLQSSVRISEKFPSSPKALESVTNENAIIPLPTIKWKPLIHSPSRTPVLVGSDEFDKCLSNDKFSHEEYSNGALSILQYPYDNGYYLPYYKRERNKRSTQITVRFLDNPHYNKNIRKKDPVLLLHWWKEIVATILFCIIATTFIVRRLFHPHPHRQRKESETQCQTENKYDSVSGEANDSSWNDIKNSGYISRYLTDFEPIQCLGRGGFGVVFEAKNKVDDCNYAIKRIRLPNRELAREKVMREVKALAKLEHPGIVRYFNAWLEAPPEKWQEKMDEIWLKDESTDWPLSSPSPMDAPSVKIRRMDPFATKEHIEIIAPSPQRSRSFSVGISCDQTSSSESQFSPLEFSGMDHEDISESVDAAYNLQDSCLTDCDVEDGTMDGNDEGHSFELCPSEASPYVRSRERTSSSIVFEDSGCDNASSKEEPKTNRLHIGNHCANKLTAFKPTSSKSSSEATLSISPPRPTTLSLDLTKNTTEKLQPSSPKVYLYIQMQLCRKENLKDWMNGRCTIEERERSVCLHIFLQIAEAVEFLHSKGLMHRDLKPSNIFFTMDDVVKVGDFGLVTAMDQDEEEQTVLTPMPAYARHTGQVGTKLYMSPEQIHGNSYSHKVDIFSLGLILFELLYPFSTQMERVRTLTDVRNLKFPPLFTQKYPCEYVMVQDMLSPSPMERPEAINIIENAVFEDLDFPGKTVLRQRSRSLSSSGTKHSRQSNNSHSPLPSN
Description: Stable cell lines were created in HEK293 cells using lentiviral particles harboring an expression vector for GFP-eIF2α. Cells were selected using puromycin and enriched using fluorescence activated cell sorting against GFP. HEK293-EGFP-eIF2α cells were plated at 5000 cells/well in 384-well assay plates and incubated overnight at 37° C., 5% CO2. Inhibitor compounds were added to the wells by Echo acoustic dispensing and incubated for 30 minutes at 37° C., 5% CO2 prior to induction of ER stress by addition of tunicamycin to […] for 2 hours. Cells were lysed and TR-FRET was measured in an EnVision plate reader (PerkinElmer). FRET ratio data was normalized to signal from lysates treated with DMSO vehicle control and plotted as percent inhibition against 10-point; 3-fold dilution series of inhibitors. IC50 values were calculated using 4-parameter logistical fitting in XLFit.

Chain of EIF2AK3 (PERK) catalytic domain (amino acids 536-1116) (Q9NZJ5 536-1116): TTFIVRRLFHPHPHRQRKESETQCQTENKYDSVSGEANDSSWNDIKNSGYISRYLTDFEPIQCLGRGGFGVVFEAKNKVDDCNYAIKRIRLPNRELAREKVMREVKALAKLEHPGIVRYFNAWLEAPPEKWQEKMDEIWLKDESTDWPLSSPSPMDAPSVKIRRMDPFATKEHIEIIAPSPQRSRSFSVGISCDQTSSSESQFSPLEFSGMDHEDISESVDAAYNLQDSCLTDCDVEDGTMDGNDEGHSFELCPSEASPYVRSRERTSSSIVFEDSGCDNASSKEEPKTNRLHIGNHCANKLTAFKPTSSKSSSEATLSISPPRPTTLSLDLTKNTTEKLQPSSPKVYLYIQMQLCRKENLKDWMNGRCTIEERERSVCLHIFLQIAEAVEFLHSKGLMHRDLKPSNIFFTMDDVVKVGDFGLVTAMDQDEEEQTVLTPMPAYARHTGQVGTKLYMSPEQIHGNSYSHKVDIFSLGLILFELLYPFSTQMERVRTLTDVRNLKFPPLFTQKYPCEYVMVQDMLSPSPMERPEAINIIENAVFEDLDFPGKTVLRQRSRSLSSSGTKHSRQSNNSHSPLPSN

IC50 [1] [nM]	IC50 (PERK) [µM]	SMILES
1 to 25	0.051 to 0.1	CNC(=O)c1cc(-c2ccc(NC(=O)C(O)c3cc(F)cc(F)c3)cc2C)cnc1N (single isomer, unassigned) [Example 10, 2-amino-5-(4-(2-(3,5-difluorophenyl)-2-hydroxyacetamido)-2-methylphenyl)-N-methylnicotinamide]
1 to 25	0.501 to 1	CCNC(=O)c1cc(-c2ccc(NC(=O)C(O)c3cc(F)cc(F)c3)cc2C)cnc1N (single isomer, unassigned) [Example 13, 2-amino-5-(4-(2-(3,5-difluorophenyl)-2-hydroxyacetamido)-2-methylphenyl)-N-ethylnicotinamide]
1 to 25	0.026 to 0.05	Cc1cc(NC(=O)C(O)c2cc(F)cc(F)c2)ccc1-c1cnc(N)c(C(=O)NCC(F)(F)F)c1 (single isomer, unassigned) [Example 18, 2-amino-5-(4-(2-(3,5-difluorophenyl)-2-hydroxyacetamido)-2-methylphenyl)-N-(2,2,2-trifluoroethyl) nicotinamide]
51 to 100	0.101 to 0.25	CC(C)NC(=O)c1cc(-c2ccc(NC(=O)C(O)c3cc(F)cc(F)c3)cc2Cl)cnc1N (single isomer, unassigned) [Example 35]
1 to 25	0.001 to 0.025	CCc1cc(NC(=O)C(O)c2cc(F)cc(F)c2)ccc1-c1cnc(N)c(C(=O)NC(C)C)c1 (single isomer, unassigned) [Example 38, 2-amino-5-(4-(2-(3,5-difluorophenyl)-2-hydroxyacetamido)-2-ethylphenyl)-N-isopropylnicotinamide]
51 to 100	0.251 to 0.5	Cc1cc(NC(=O)C(O)c2cc(F)cc(F)c2)ccc1-c1cnc(N)c(C(=O)OC(C)C)c1 (single isomer, unassigned) [Example 43, isopropyl 2-amino-5-(4-(2-(3,5-difluorophenyl)-2-hydroxyacetamido)-2-methylphenyl) nicotinate]
1 to 25	0.001 to 0.025	CCc1cccc(C(O)C(=O)Nc2ccc(-c3cnc(N)c(C(=O)NC(C)C)c3)c(C)c2)c1 (single isomer, unassigned) [Example 72, 2-amino-5-(4-(2-(3-ethylphenyl)-2-hydroxyacetamido)-2-methylphenyl)-N-isopropylnicotinamide]
101 to 250	0.251 to 0.5	CCc1cccc(C(O)C(=O)Nc2ccc(-c3cnc(N)c(C(=O)NC(C)C)c3)c(C)c2)c1 (single isomer, unassigned) [Example 73, 2-amino-5-(4-(2-(3-ethylphenyl)-2-hydroxyacetamido)-2-methylphenyl)-N-isopropylnicotinamide]
–	0.251 to 0.5	Cc1ccccc1CC(=O)Nc1ccc(-c2cnc(N)c(C(=O)NC(C)C)c2)c(C)c1 [Example 195, 2-amino-N-isopropyl-5-(2-methyl-4-(2-(o-tolyl)acetamido)phenyl)nicotinamide]
–	0.251 to 0.5	Cc1cccc(CC(=O)Nc2ccc(-c3cnc(N)c(C(=O)NC(C)C)c3)c(C)c2)c1 [Example 196, 2-amino-N-isopropyl-5-(2-methyl-4-(2-(m-tolyl)acetamido)phenyl)nicotinamide]

Further lines, the molecule ahead of its results:

SMILES	IC50 [1] [nM]	IC50 (PERK) [µM]
Cc1cc(NC(=O)C(O)c2ccccc2)ccc1-c1cnc(N)c(C(=O)NC(C)C)c1 (single isomer, unassigned) [Example 1, 2-amino-5-(4-(2-hydroxy-2-phenylacetamido)-2-methylphenyl)-N-isopropylnicotinamide]	1 to 25	0.251 to 0.5
Cc1cc(NC(=O)C(O)c2ccccc2)ccc1-c1cnc(N)c(C(=O)NC(C)C)c1 (single isomer, unassigned) [Example 2, 2-amino-5-(4-(2-hydroxy-2-phenylacetamido)-2-methylphenyl)-N-isopropylnicotinamide]	1 to 25	0.101 to 0.25
CNC(=O)c1cc(-c2ccc(NC(=O)C(O)c3cc(F)cc(F)c3)cc2C)cnc1N (single isomer, unassigned) [Example 11, 2-amino-5-(4-(2-(3,5-difluorophenyl)-2-hydroxyacetamido)-2-methylphenyl)-N-methylnicotinamide]	501 to 1000	1 to 2
CCNC(=O)c1cc(-c2ccc(NC(=O)C(O)c3cc(F)cc(F)c3)cc2C)cnc1N (single isomer, unassigned) [Example 12, 2-amino-5-(4-(2-(3,5-difluorophenyl)-2-hydroxyacetamido)-2-methylphenyl)-N-ethylnicotinamide]	1 to 25	0.026 to 0.05
Cc1cc(NC(=O)C(O)c2cc(F)cc(F)c2)ccc1-c1cnc(N)c(C(=O)NC(C)(C)C)c1 (single isomer, unassigned) [Example 16, 2-amino-N-(tert-butyl)-5-(4-(2-(3,5-difluorophenyl)-2-hydroxyacetamido)-2-methylphenyl) nicotinamide]	26 to 50	0.101 to 0.25
Cc1cc(NC(=O)C(O)c2cc(F)cc(F)c2)ccc1-c1cnc(N)c(C(=O)NC(C)(C)C)c1 (single isomer, unassigned) [Example 17, 2-amino-N-(tert-butyl)-5-(4-(2-(3,5-difluorophenyl)-2-hydroxyacetamido)-2-methylphenyl) nicotinamide]	251 to 500	0.501 to 1
Cc1cc(NC(=O)C(O)c2cc(F)cc(F)c2)ccc1-c1cnc(N)c(C(=O)NCC(F)(F)F)c1 (single isomer, unassigned) [Example 19, 2-amino-5-(4-(2-(3,5-difluorophenyl)-2-hydroxyacetamido)-2-methylphenyl)-N-(2,2,2-trifluoroethyl) nicotinamide]	101 to 250	0.101 to 0.25
CC(C)NC(=O)c1cc(-c2ccc(NC(=O)C(O)c3cc(F)cc(F)c3)cc2Cl)cnc1N (single isomer, unassigned) [Example 34]	1 to 25	0.001 to 0.025
CCc1cc(NC(=O)C(O)c2cc(F)cc(F)c2)ccc1-c1cnc(N)c(C(=O)NC(C)C)c1 (single isomer, unassigned) [Example 39, 2-amino-5-(4-(2-(3,5-difluorophenyl)-2-hydroxyacetamido)-2-ethylpehnyl)-N-isopropylnicotinamide]	101 to 250	0.101 to 0.25
Cc1cc(NC(=O)C(O)c2cc(F)cc(F)c2)ccc1-c1cnc(N)c(C(=O)OC(C)C)c1 (single isomer, unassigned) [Example 42, isopropyl 2-amino-5-(4-(2-(3,5-difluorophenyl)-2-hydroxyacetamido)-2-methylphenyl) nicotinate]	1 to 25	0.026 to 0.05
CCc1cc(NC(=O)C(O)c2cccc(Cl)c2)ccc1-c1cnc(N)c(C(=O)NC(C)C)c1 (single isomer, unassigned) [Example 108, 2-amino-5-(4-(2-(3-chlorophenyl)-2-hydroxyacetamido)-2-ethylphenyl)-N-isopropylnicotinamide]	1 to 25	0.001 to 0.025
CCc1cc(NC(=O)C(O)c2cccc(Cl)c2)ccc1-c1cnc(N)c(C(=O)NC(C)C)c1 (single isomer, unassigned) [Example 109, 2-amino-5-(4-(2-(3-chlorophenyl)-2-hydroxyacetamido)-2-ethylphenyl)-N-isopropylnicotinamide]	51 to 100	0.101 to 0.25
CCc1cc(NC(=O)C(O)c2cc(F)cc(F)c2)ccc1-c1cnc(N)c(C(=O)NCC(F)(F)F)n1 (single isomer, unassigned) [Example 154, 3-amino-6-(4-(2-(3,5-difluorophenyl)-2-hydroxyacetamido)-2-ethylphenyl)-N-(2,2,2-trifluoroethyl) pyrazine-2-carboxamide]	1 to 25	0.001 to 0.025
Nc1ncc(-c2ccc(NC(=O)C(O)c3cc(F)cc(F)c3)cc2Cl)nc1C(=O)NC1CC1 (centres unmarked) [Example 166, 3-amino-6-(2-chloro-4-(2-(3,5-difluorophenyl)-2-hydroxyacetamido)phenyl)-N-cyclopropyl-pyrazine-2-carboxamide]	–	0.026 to 0.05
Nc1ncc(-c2ccc(NC(=O)C(O)c3cc(F)cc(F)c3)cc2Cl)nc1C(=O)NC1CC1 (centres unmarked) [Example 167]	–	0.101 to 0.25
CCc1ccccc1CC(=O)Nc1ccc(-c2cnc(N)c(C(=O)NC(C)C)c2)c(C)c1 [Example 204, 2-amino-5-(4-(2-(2-ethylphenyl)acetamido)-2-methylphenyl)-N-isopropylnicotinamide]	101 to 250	–
